# Test results: the RepoRT retention time repository
# Structures can show the parent of a compound that is named as a salt.
# Experiment: HILIC, Merck SeQuant ZIC-HILIC, 25 °C, 0.25 mL/min; A: water + 16 mM ammonium formate; B: acetonitrile + 0.1% formic acid, pH 3; gradient (min/%B) 0/97 2/97 10/70 15/10 17/10 18/97 25/97
# Conditions: stereoisomer not certain
compound,measurement,value
O=c1[nH]cc(CO)c(=O)[nH]1 [5-HYDROXYMETHYLURACIL],LC retention time,8.25 min
C#CC1(O)CCC2C3CCc4cc(O)ccc4C3CCC21C (stereo not given) [17a-Ethynylestradiol],LC retention time,1.68 min
NC(CO)Cc1cnc[nH]1 (stereo not given) [HISTIDINOL],LC retention time,17 min
NCCCN [1-3-DIAMINOPROPANE],LC retention time,17.6 min
COc1cc(C=CC(=O)O)ccc1O [FERULATE],LC retention time,1.94 min
Cc1ncc(CO)c(C=O)c1O [PYRIDOXAL],LC retention time,8.23 min
C=CC1=C(C)C(C=c2[nH]c(=Cc3[nH]c(C=C4NC(=O)C(C)=C4C=C)c(C)c3CCC(=O)O)c(CCC(=O)O)c2C)=NC1=O [BILIVERDIN],LC retention time,2.06 min
O=C1OC(C(O)CO)C(O)C1O [L-GULONOLACTONE],LC retention time,10.3 min
Nc1ccn(C2OC(COP(=O)(O)OP(=O)(O)OP(=O)(O)O)C(O)C2O)c(=O)n1 (stereo not given) [CYTIDINE TRIPHOSPHATE],LC retention time,15.9 min
CC(C)CC(O)C(=O)O (stereo not given) [2-Hydroxyisocaproic acid],LC retention time,1.91 min
Cc1ncc(CO)c(CO)c1O [PYRIDOXINE],LC retention time,10.4 min
O=C1OC(CO)C(O)C(O)C1O (stereo not given) [GLUCONOLACTONE],LC retention time,14.5 min
Nc1ccn(C2CC(O)C(COP(=O)(O)O)O2)c(=O)n1 (stereo not given) [DEOXYCYTIDINE MONOPHOSPHATE],LC retention time,14.5 min
Nc1nc2c(c(=O)[nH]1)N=C(CNc1ccc(C(=O)NC(CCC(=O)O)C(=O)O)cc1)CN2 (stereo not given) [DIHYDROFOLATE],LC retention time,12.4 min
NC(=O)NC1NC(=O)NC1=O (stereo not given) [ALLANTOIN],LC retention time,11.2 min
Oc1ccc2[nH]ccc2c1 [5-Hydroxyindole],LC retention time,2 min
O=c1c(O)c(-c2ccc(O)c(O)c2)oc2cc(O)cc(O)c12 [quercetine dihydrate],LC retention time,2.16 min
CC(=O)NCCc1c[nH]c2ccc(O)cc12 [N-ACETYLSEROTONIN],LC retention time,2.15 min
CC(=O)NC(CSSCC(NC(C)=O)C(=O)O)C(=O)O (stereo not given) [N-ACETYLCYSTEINE-dimere],LC retention time,13.2 min
NCCc1ccc(O)cc1 [TYRAMINE],LC retention time,11.3 min
O=C(O)Cc1ccc(O)c(O)c1 [3-4-DIHYDROXYPHENYLACETATE],LC retention time,5.6 min
CC(=O)NCCCNCCCCNCCCN [N1-ACETYLSPERMINE],LC retention time,19.9 min
CCCCCCCCCCCCCCCCCCCCCCC(=O)[O-] [TRICOSANOATE],LC retention time,1.53 min
CNC(=O)c1cccnc1 [N methyl nicotinamide],LC retention time,2.15 min
COC1=C(OC)C(=O)C(CC=C(C)C)=C(C)C1=O [coenzyme Q1],LC retention time,1.53 min
COc1cc(C(=O)O)ccc1O [Vanillic acid],LC retention time,2.08 min
COC1C(O)C(CO)OC1n1cnc2c(=O)[nH]cnc21 (stereo not given) [2'-O-Methylinosine],LC retention time,8.49 min
Nc1ncnc2c1ncn2C1CC(O)C(COP(=O)(O)OP(=O)(O)O)O1 (stereo not given) [2'-DEOXYADENOSINE 5'-DIPHOSPHATE],LC retention time,14.6 min
Nc1nc2c(ncn2C2OC(COP(=O)(O)OP(=O)(O)O)C(O)C2O)c(=O)[nH]1 (stereo not given) [GUANOSINE DIPHOSPHATE],LC retention time,15.4 min
CC(=O)OCC(=O)O [Acetoxyacetic acid],LC retention time,2.23 min
CCCCCCCCC=CCCCCCCCC(=O)OCC(O)COP(=O)([O-])OCC[N+](C)(C)C (stereo not given) [18-1_LysoPC],LC retention time,11.2 min
CC1NC(=O)NC1CCCCCC(=O)O (stereo not given) [DETHIOBIOTIN],LC retention time,2.13 min
O=c1[nH]cnc2c1ncn2C1OC(CO)C(O)C1O (stereo not given) [INOSINE],LC retention time,10.3 min
O=C(O)Cc1c[nH]c2ccccc12 [INDOLE-3-ACETATE],LC retention time,2.06 min
NCC(O)c1ccc(O)c(O)c1 (stereo not given) [NORADRENALINE],LC retention time,13.4 min
Nc1ncnc2c1ncn2C1OC(COP(=O)(O)OP(=O)([O-])OCC2OC([n+]3cccc(C(=O)O)c3)C(O)C2O)C(O)C1OP(=O)(O)O (stereo not given) [NICOTINIC ACID ADENINE DINUCLEOTIDE PHOSPHATE],LC retention time,15.3 min
O=C(O)c1cc[n+]([O-])cc1 [Isonicotinic acid N-oxide],LC retention time,9.7 min
C[C@H](O)CC(=O)O [(S)-3-Hydroxybutyric acid],LC retention time,2.16 min
"CN1C2CC(OC(=O)C(CO)c3ccccc3)CC1C1OC12 (single isomer, unassigned; (-)) [(-)-Scopolamine hydrochloride]",LC retention time,9.99 min
O=C(O)CCCCCCC(=O)O [SUBERATE],LC retention time,1.91 min
Cc1ccc(O)c(O)c1 [4-METHYLCATECHOL],LC retention time,1.84 min
O=C(O)c1cccc(O)c1 [3-HYDROXYBENZOATE],LC retention time,2.15 min
O=C(O)C(O)C(O)C(=O)O (stereo not given) [TARTRATE D],LC retention time,14.2 min
C[N+](C)(C)CCCCC(N)C(=O)[O-] (stereo not given) [N-N-N-TRIMETHYLLYSINE],LC retention time,16.5 min
COC(=O)CCCCC(=O)O [mono-Methyl adipate],LC retention time,1.71 min
